Key:
[1] = system: S. aureus Newman; assay: Bliss interaction score (quartile over a dose matrix) (fitness difference); higher = more antagonism (negative = synergy)
Summary of the method: (§1)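 At entry into stationary phase, OD595 was recorded and divided by the robust mean of the no-drug wells on that plate, with any value above 1 set to 1. This gives the fitness measure used throughout. Single-drug fitness was inferred from combination data, and the Bliss score, observed minus product-expected fitness, is shown as quartiles across technical, biological and donor/recipient replicates.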

[2] = system: B. subtilis 168; assay: as above
Summary of the method: as §1

[3] = system: S. aureus DSM 20231; assay: as above
Summary of the method: as §1

[4] = system: S. pneumoniae D39V; assay: as above
Summary of the method: as §1

[5] = system: B. subtilis 168; assay: fitness (endpoint OD595 vs no drug) (fraction); higher = more growth
Summary of the method: (§2)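 Volumes were 30 µl per well, or 55 µl for S. pneumoniae, in 384-well plates inoculated at OD595 0.01. Media were TSB, LB Lennox or CY at 37 °C, and OD595 was read every 30 min for 14 h with first-reading background subtraction. Fitness is the ratio of optical density at stationary-phase entry to the robust mean of no-drug controls. That ratio is capped at 1.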

[6] = system: S. pneumoniae D39V; assay: as above
Summary of the method: as §2
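Throughout, for Bliss interaction score (quartile over a dose matrix): first quartile when negative (synergy) and third quartile when positive (antagonism).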

C[C@H]1COc2c(N3CCN(C)CC3)c(F)cc3c(=O)c(C(=O)O)cn1c23 [Levofloxacin] + CN1C2=CC=CC=C2N=C3C1=CC=CC3=O [Pyocyanin]
Settings	Bliss interaction score
[1]	-0.0335
[2]	-0.0161
[3]	0.0335
[4]	0.0846

fitness, one replicate
Settings	first compound 0.001 µg/mL	first compound 0.002 µg/mL	first compound 0.0039 µg/mL	first compound 0.2 µg/mL	first compound 0.4 µg/mL	first compound 0.8 µg/mL
[5], partner 1.25 µg/mL	0.891	0.8	0.846	–	–	–
[5], partner 2.5 µg/mL	0.864	0.813	0.795	–	–	–
[5], partner 5 µg/mL	0.68	0.621	0.64	–	–	–
[6], partner 0.325 µg/mL	–	–	–	0.878	0.371	0.296
[6], partner 0.65 µg/mL	–	–	–	0.965	0.875	0.679

fitness
Settings	first compound 0.0312 µg/mL	first compound 0.0625 µg/mL	first compound 0.125 µg/mL	first compound 0.1725 µg/mL	first compound 0.345 µg/mL	first compound 0.69 µg/mL
[5], partner 1.25 µg/mL	0.0394	0.0289	0.03	–	–	–
[5], partner 2.5 µg/mL	0.0377	0.0408	0.0364	–	–	–
[5], partner 5 µg/mL	0.0364	0.0433	0.0258	–	–	–
[6], partner 0.325 µg/mL	–	–	–	0.988	0.936	0.668
[6], partner 0.65 µg/mL	–	–	–	0.958	0.896	0.596
[6], partner 1.3 µg/mL	–	–	–	0.782	0.74	0.459

C[C@H]1COc2c(N3CCN(C)CC3)c(F)cc3c(=O)c(C(=O)O)cn1c23 [Levofloxacin] + CO[C@@H]1[C@@H](OC(N)=O)[C@@H](O)[C@H](Oc2ccc3c(O)c(NC(=O)c4ccc(O)c(CC=C(C)C)c4)c(=O)oc3c2C)OC1(C)C [Novobiocin]
Settings	Bliss interaction score
[1]	-0.091
[2]	-0.0305
[3]	-0.0698
[4]	-0.121

fitness, [5], one replicate
Settings	partner 0.05 µg/mL	partner 0.1 µg/mL	partner 0.125 µg/mL	partner 0.2 µg/mL	partner 0.25 µg/mL	partner 0.5 µg/mL
first compound 0.001 µg/mL	≥ 1	≥ 1	–	≥ 1	–	–
first compound 0.002 µg/mL	0.929	0.952	0.908	0.933	0.874	0.493
first compound 0.0039 µg/mL	0.965	≥ 1	0.839	0.928	0.808	0.505
first compound 0.0078 µg/mL	–	–	0.864	–	0.808	0.457

fitness, [5]
Settings	first compound 0.0312 µg/mL	first compound 0.0625 µg/mL	first compound 0.125 µg/mL
partner 0.0125 µg/mL	0.0275	0.0273	0.0195
partner 0.025 µg/mL	0.0255	0.0301	0.0265
partner 0.05 µg/mL	0.028	0.0286	0.0286

C[C@H]1COc2c(N3CCN(C)CC3)c(F)cc3c(=O)c(C(=O)O)cn1c23 [Levofloxacin] + COc1cc(Cc2cnc(N)nc2N)cc(OC)c1OC [Trimethoprim]
Settings	Bliss interaction score
[1]	-0.109
[2]	0.0693
[3]	-0.0537
[4]	-0.112

[5], one replicate
Settings	fitness
first compound 0.001 µg/mL, partner 0.125 µg/mL	0.528
first compound 0.001 µg/mL, partner 0.25 µg/mL	0.41
first compound 0.001 µg/mL, partner 0.5 µg/mL	0.456
first compound 0.002 µg/mL, partner 0.1 µg/mL	0.907
first compound 0.002 µg/mL, partner 0.2 µg/mL	0.804
first compound 0.002 µg/mL, partner 0.4 µg/mL	0.572
first compound 0.0039 µg/mL, partner 0.1 µg/mL	0.884
first compound 0.0039 µg/mL, partner 0.2 µg/mL	0.745
first compound 0.0039 µg/mL, partner 0.4 µg/mL	0.548
first compound 0.0078 µg/mL, partner 0.1 µg/mL	0.872
first compound 0.0078 µg/mL, partner 0.125 µg/mL	0.736
first compound 0.0078 µg/mL, partner 0.2 µg/mL	0.696
first compound 0.0078 µg/mL, partner 0.4 µg/mL	0.521
first compound 0.0312 µg/mL, partner 1 µg/mL	0.0312
first compound 0.0312 µg/mL, partner 2 µg/mL	0.0414
first compound 0.0625 µg/mL, partner 1 µg/mL	0.0468
first compound 0.0625 µg/mL, partner 2 µg/mL	0.0379
first compound 0.125 µg/mL, partner 1 µg/mL	0.0309
first compound 0.125 µg/mL, partner 2 µg/mL	0.0616

fitness, [5]
Settings	first compound 0.002 µg/mL	first compound 0.0039 µg/mL	first compound 0.0078 µg/mL	first compound 0.0312 µg/mL	first compound 0.0625 µg/mL	first compound 0.125 µg/mL
partner 0.125 µg/mL	0.554	0.564	–	–	–	–
partner 0.25 µg/mL	–	–	0.689	–	–	–
partner 0.5 µg/mL	0.423	0.414	0.494	0.0339	0.0357	0.0365

CN(C)C(=O)C(CCN1CCC(O)(c2ccc(Cl)cc2)CC1)(c1ccccc1)c1ccccc1 [Loperamide] + CO[C@@H]1[C@@H](OC(N)=O)[C@@H](O)[C@H](Oc2ccc3c(O)c(NC(=O)c4ccc(O)c(CC=C(C)C)c4)c(=O)oc3c2C)OC1(C)C [Novobiocin]
Settings	Bliss interaction score
[1]	-0.0759
[2]	0.205
[3]	-0.0535
[4]	-0.113

[5], first compound 25 µg/mL
Settings	fitness
partner 0.0125 µg/mL	0.889
partner 0.025 µg/mL	0.85
partner 0.05 µg/mL	0.86

fitness, [5], one replicate
Settings	first compound 25 µg/mL	first compound 50 µg/mL	first compound 100 µg/mL
partner 0.125 µg/mL	0.703	0.028	0.0375
partner 0.25 µg/mL	0.274	0.0063	0.0267
partner 0.5 µg/mL	0.186	0.0466	0.0548

CN(C)C(=O)C(CCN1CCC(O)(c2ccc(Cl)cc2)CC1)(c1ccccc1)c1ccccc1 [Loperamide] + COc1cc(Cc2cnc(N)nc2N)cc(OC)c1OC [Trimethoprim]
Settings	Bliss interaction score
[1]	0.0605
[2]	-0.102
[3]	-0.0416
[4]	0.274

fitness, [5], one replicate
Settings	partner 0.1 µg/mL	partner 0.125 µg/mL	partner 0.2 µg/mL	partner 0.4 µg/mL	partner 1 µg/mL	partner 2 µg/mL
first compound 25 µg/mL	0.0203	0.525	0.0477	0.0288	0.0225	0.0222
first compound 50 µg/mL	0.0097	0.0833	0.0381	0.0129	0.0319	0.0248
first compound 100 µg/mL	0.0141	0.107	0.0463	0.0259	0.031	0.0361

fitness, [5]
Settings	first compound 50 µg/mL	first compound 100 µg/mL
partner 0.25 µg/mL	0.201	0.0658
partner 0.5 µg/mL	0.0275	0.0239
